Read-outs that look alike come from different tables or passages of the source.
Assays:
[1] = tested on: mammalian liver and brain GDHs; set-up: method as in PMID 3701332, PMID 7588764, PMID 7190024, PMID 4052048, PMID 1366782; details: cited from earlier work
HepM GDH1 = HepM GDH1 (Rattus norvegicus, UniProt P10860); test: GDH reverse (aminating) reaction activity in hepatoma mitochondria (HepM); type: biochemical; details: for Ki: saturating ADP, read-out: Ki GTP; for EC50: Hill equation; for Vmax at given ADP concentration: HepM GDH, pH 7.50, 37°C, 280 μg protein, MWC fit, representative experiment
Description: (§1) Tightly coupled mitochondria were isolated from fed-rat liver (RLM) and AS-30D cells (HepM) as described elsewhere ([89], [90]). […] The resulting mitochondrial fractions were resuspended at 30 to 80 mg protein/mL in SHE buffer with 1 mM PMSF, 1 mM EDTA, 5 mM DTT, and 10% glycerol, and stored at −70°C until use for determination of enzyme activity and Western blotting.

RLM GDH1 = RLM GDH1 (Rattus norvegicus, UniProt P10860); test: GDH reverse (aminating) reaction activity in rat liver mitochondria (RLM); type: biochemical; details: for Ki: saturating ADP, read-out: Ki GTP; for EC50: Hill equation; for Vmax at given ADP concentration: RLM GDH, pH 7.50, 37°C, 90 μg protein, MWC fit, representative experiment
Description: as §1

tumors = tested on: tumors; set-up: method as in PMID 10071293; details: clinical trials; cited from earlier work
[2] = tested on: prostate cancer, renal cancer, and leukemia cell lines; set-up: method as in PMID 1372534, PMID 12820434; details: cited from earlier work
GDH1 = GDH1 (Rattus norvegicus, UniProt P10860); test: Effect of Mg2+ and spermidine on GDH1 activity; type: biochemical
Description: (§2) The decrease in the absorbance at 340 nm was followed for several minutes (~10 min) to allow for full development of the pronounced enzyme hysteretic behavior, although the initial signal decrease (1–3 min) was taken to calculate the GDH rates. The protein concentration ranges used for each mitochondrial type were well within the linearity range of enzyme activity. To calculate the kinetic parameters, the experimental data were fitted by non-linear regression analysis to the Hill or MWC equation, using the Microcal Origin 5.0 software (OriginLab, Northampton, MA, USA).

GDH in HepM and RLM = GDH in HepM and RLM (Rattus norvegicus, UniProt P10860); test: GDH reverse reaction kinetics, summary statements for HepM and RLM; type: biochemical; details: summary of Table 2
Description: as §2

[3] = tested on: recombinant human GDH isoforms (GDH1 and GDH2), bovine liver GDH, Ox brain GDH, dogfish liver GDH, rat brain GDH, and bovine brain GDH isoforms; set-up: method as in PMID 4381532, PMID 7588764, PMID 17924438, PMID 23420347, PMID 7190024; details: pH range of 7.4–8.7, cited from earlier work

Chain of GDH1 (P10860 54-558): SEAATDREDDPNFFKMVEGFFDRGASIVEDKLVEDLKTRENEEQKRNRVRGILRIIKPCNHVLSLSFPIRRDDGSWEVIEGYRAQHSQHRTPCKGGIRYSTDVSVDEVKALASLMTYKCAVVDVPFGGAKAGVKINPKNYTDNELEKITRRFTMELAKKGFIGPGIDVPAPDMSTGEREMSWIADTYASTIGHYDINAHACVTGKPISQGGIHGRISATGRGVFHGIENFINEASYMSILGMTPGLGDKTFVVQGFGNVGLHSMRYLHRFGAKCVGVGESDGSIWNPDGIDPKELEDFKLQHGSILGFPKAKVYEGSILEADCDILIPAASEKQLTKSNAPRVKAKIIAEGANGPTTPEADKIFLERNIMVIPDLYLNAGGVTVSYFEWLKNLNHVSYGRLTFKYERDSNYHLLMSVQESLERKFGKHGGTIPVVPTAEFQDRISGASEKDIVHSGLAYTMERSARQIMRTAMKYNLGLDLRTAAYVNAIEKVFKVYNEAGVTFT
Chain of HepM GDH1 (P10860 54-558): as above
Chain of RLM GDH1 (P10860 54-558): as above
Chain of GDH in HepM and RLM (P10860 54-558): as above

## NC(=O)c1ccc[n+]([C@@H]2O[C@H](COP(=O)([O-])OP(=O)(O)OC[C@H]3O[C@@H](n4cnc5c(N)ncnc54)[C@H](OP(=O)(O)O)[C@@H]3O)[C@@H](O)[C@H]2O)c1 [NADP^+]
[1]
  Km: 160 to 1220 µM

## Nc1nc2c(ncn2[C@@H]2O[C@H](COP(=O)(O)OP(=O)(O)OP(=O)(O)O)[C@@H](O)[C@H]2O)c(=O)[nH]1 [GTP]
HepM GDH1; HepM, pH 7.2, MWC equation
  Ki: 28 ± 27 µM
HepM GDH1; HepM, pH 7.2, reverse reaction
  IC50: 114 ± 29 µM
HepM GDH1; HepM, pH 7.5, MWC equation
  Ki: 64 ± 59 µM
RLM GDH1; RLM, pH 7.2, MWC equation
  Ki: 60 ± 10 µM
RLM GDH1; RLM, pH 7.2, reverse reaction
  IC50: 139 ± 21 µM
RLM GDH1; RLM, pH 7.5, MWC equation
  Ki: 31.7 ± 7 µM
RLM GDH1; RLM, pH 7.5, reverse reaction
  IC50: 244 µM

## NC(=O)C1=CN([C@@H]2O[C@H](COP(=O)(O)OP(=O)(O)OC[C@H]3O[C@@H](n4cnc5c(N)ncnc54)[C@H](O)[C@@H]3O)[C@@H](O)[C@H]2O)C=CC1 [NADH]
[1]
  Km: 28 to 120 µM

## O=C(O)Cc1ccccc1 [phenylacetate]
tumors
  Antitumor activity: negligible antitumor activity
[2]
  Growth of cell lines: arrests growth

## NCCCCNCCCN [Spermidine]
GDH1; spermidine 0–5 mM, data not shown
  Effect on GDH activity: innocuous
GDH1; spermidine 20 mM, data not shown, read-out: Inhibition of GDH activity
  inhibition at 20000 µM: 20%

## [Cl-].[Cl-].[Mg+2] [Mg^2+, MgCl2]
GDH1; 0- to 0.4-mM added MgCl2
  Effect on GDH1 activity: not affected
GDH1; 1 mM Mg^2+
  Inhibition of GDH1 activity: < 10%
GDH1; 2 mM Mg^2+
  Inhibition of GDH1 activity: ~ 20%

## CC(C)C[C@H](N)C(=O)O [Leu, L-leucine]
HepM GDH1; HepM, pH 7.2, Hill equation
  nH (Hill coefficient) for Leu: 2.8
HepM GDH1; HepM, pH 7.2, activator, read-out: K0.5 Leu
  EC50: 2600 µM
RLM GDH1; RLM, pH 7.2, Hill equation
  nH (Hill coefficient) for Leu: 2.75
RLM GDH1; RLM, pH 7.2, activator, read-out: K0.5 Leu
  EC50: 3900 µM

## Nc1ncnc2c1ncn2[C@@H]1O[C@H](COP(=O)(O)OP(=O)(O)O)[C@@H](O)[C@H]1O [ADP]
GDH in HepM and RLM
  Hill coefficient (nH) when varying ADP: 2.3–2.8
HepM GDH1; 0.13 mM ADP
  Vmax at given ADP concentration: 0.037 ± 0.009 ΔAbs/min
HepM GDH1; 0.5 mM ADP
  Vmax at given ADP concentration: 0.153 ± 0.008 ΔAbs/min
HepM GDH1; 1.5 mM ADP
  Vmax at given ADP concentration: 0.193 ± 0.011 ΔAbs/min
HepM GDH1; […] ADP
  Vmax at given ADP concentration: 0.099 ± 0.010 ΔAbs/min
HepM GDH1; HepM, pH 7.2, Hill equation
  nH (Hill coefficient) for ADP: 2.77 ± 0.7
HepM GDH1; HepM, pH 7.2, MWC equation
  Ka ADP (activation constant): 0.42 ± 0.26 (3) mM
HepM GDH1; HepM, pH 7.2, allosteric activator, read-out: K0.5 ADP
  EC50: 564 ± 167 µM
HepM GDH1; HepM, pH 7.5, Hill equation
  nH (Hill coefficient) for ADP: 2.6 ± 0.4
HepM GDH1; HepM, pH 7.5, MWC equation
  Ka ADP (activation constant): 0.44 ± 0.37 (3) mM
HepM GDH1; HepM, pH 7.5, allosteric activator, read-out: K0.5 ADP
  EC50: 281 ± 134 µM
RLM GDH1; 0.25 mM ADP
  Vmax at given ADP concentration: 0.131 ± 0.113 ΔAbs/min
RLM GDH1; 0.75 mM ADP
  Vmax at given ADP concentration: 0.295 ± 0.022 ΔAbs/min
RLM GDH1; 2.1 mM ADP
  Vmax at given ADP concentration: 0.367 ± 0.024 ΔAbs/min
RLM GDH1; RLM, pH 7.2, Hill equation
  nH (Hill coefficient) for ADP: 2.4 ± 0.3
RLM GDH1; RLM, pH 7.2, MWC equation
  Ka ADP (activation constant): 0.51 ± 0.14 (5) mM
RLM GDH1; RLM, pH 7.2, allosteric activator, read-out: K0.5 ADP
  EC50: 567 ± 125 µM
RLM GDH1; RLM, pH 7.5, Hill equation
  nH (Hill coefficient) for ADP: 2.34
RLM GDH1; RLM, pH 7.5, MWC equation
  Ka ADP (activation constant): 0.11 ± 0.14 (4) mM
RLM GDH1; RLM, pH 7.5, allosteric activator, read-out: K0.5 ADP
  EC50: 285 µM

## O=C(O)CCCc1ccccc1 [Phenylbutyrate, phenylbutyrate]
[2]
  Growth of cell lines: arrests growth

## NC(=O)C1=CN([C@@H]2O[C@H](COP(=O)(O)OP(=O)(O)OC[C@H]3O[C@@H](n4cnc5c(N)ncnc54)[C@H](OP(=O)(O)O)[C@@H]3O)[C@@H](O)[C@H]2O)C=CC1 [NADPH]
[3]; read-out: Km NADPH
  Km: 20 to 120 µM
[1]
  Km: 22 to 120 µM
HepM GDH1; read-out: Km NADPH, HepM, pH 7.2, Michaelis–Menten
  Km: 46 ± 14 µM
HepM GDH1; read-out: Km NADPH, HepM, pH 7.5, Michaelis–Menten
  Km: 109 ± 4 µM
RLM GDH1; read-out: Km NADPH, RLM, pH 7.5, Michaelis–Menten
  Km: 133 ± 28 µM

## O=C(O)CCC(=O)C(=O)O [2-OG, 2-oxoglutarate]
[3]; read-out: Km 2OG
  Km: 470 to 4500 µM
HepM GDH1; HepM, pH 7.2, Michaelis–Menten, read-out: Km 2-OG
  Km: 442 ± 160 µM
HepM GDH1; HepM, pH 7.5, Michaelis–Menten, read-out: Km 2-OG
  Km: 733 ± 325 µM
RLM GDH1; RLM, pH 7.2, Michaelis–Menten, read-out: Km 2-OG
  Km: 371 ± 232 µM
RLM GDH1; RLM, pH 7.5, Michaelis–Menten, read-out: Km 2-OG
  Km: 396 ± 75 µM

## NC(=O)c1ccc[n+]([C@@H]2O[C@H](COP(=O)([O-])OP(=O)(O)OC[C@H]3O[C@@H](n4cnc5c(N)ncnc54)[C@H](O)[C@@H]3O)[C@@H](O)[C@H]2O)c1 [NAD^+]
[1]
  Km: 170 to 830 µM
